For experiment [1], the target named is T1, human FLT3 protein (FLT3 (WT)) (Homo sapiens, UniProt P36888).
T1 construct: human FLT3 protein (intracellular region, 564 to 993 aa); GST; purchased Carna Biosciences; host or cells: baculovirus expression system
T1 sequence (P36888 564-993): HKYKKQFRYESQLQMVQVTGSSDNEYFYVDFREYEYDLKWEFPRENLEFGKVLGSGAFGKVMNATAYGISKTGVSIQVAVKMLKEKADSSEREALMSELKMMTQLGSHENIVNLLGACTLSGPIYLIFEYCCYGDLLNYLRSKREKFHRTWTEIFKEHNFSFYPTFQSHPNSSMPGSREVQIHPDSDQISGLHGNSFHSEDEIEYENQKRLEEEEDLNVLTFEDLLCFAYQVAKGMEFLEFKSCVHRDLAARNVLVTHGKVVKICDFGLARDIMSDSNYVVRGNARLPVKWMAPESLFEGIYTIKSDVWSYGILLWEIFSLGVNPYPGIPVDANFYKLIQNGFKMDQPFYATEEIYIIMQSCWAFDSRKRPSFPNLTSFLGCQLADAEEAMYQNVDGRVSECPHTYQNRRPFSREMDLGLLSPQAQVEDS
The experiment can be described thus: FLT3 inhibition test (FLT3 enzyme inhibition, time-resolved fluorescence of substrate peptide phosphorylation). The settings on record: read-out: FLT3 (WT) enzyme inhibition activity. In kind it is biochemical. In short, it runs like this:
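Wild-type human FLT3 (1.2 μg) pre-incubated with compound 15 min at 25° C in 100 mM HEPES pH 7.5, 10 mM MgCl2, 25 mM NaCl, 1 mM DTT. Reaction started with substrate peptide and ATP (final 50 μM), run 30 min at 25° C; phosphorylation read by time-resolved fluorescence.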

Experiment [2] has as its system MV4-11 cells. The experiment can be described thus: Leukemia cell proliferation inhibition test (ATPlite), MV4-11. In kind it is cell-based. The settings on record: Homo sapiens, read-out: MV4-11 cell proliferation inhibition effect. In short, it runs like this: (§1)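 Molm-13 or MV4-11 cells in RPMI with 10% FBS and pen/strep, seeded at 10,000 cells per well, were exposed to serially diluted compound for 72 hours at 37° C, 5% CO2. Total cellular ATP was read by luciferase luminescence. GI50 came from sigmoid fits against the 0.1% DMSO control, in duplicate.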

The subject of experiment [3] is Molm-13 cells. The experiment can be described thus: Leukemia cell proliferation inhibition test (ATPlite), Molm-13. It is filed as cell-based. The settings on record: Homo sapiens, read-out: MOLM13 cell proliferation inhibition effect. Put shortly: as §1
Where [4] appears, read: GST-fused human FLT3 (564 to 993 aa), ATP 50 μM.
Where [5] appears, read: MV4-11, 72 h, MV4-11, 72 hours culture, ATPlite, GI50 per method.
The mark [6] stands for this setting: MOLM-13, 72 h, Molm-13, 72 hours culture, ATPlite, GI50 per method.

Like-named read-outs stand apart in the source and are kept apart here. Bounds are passed on as bounds.

Take `CCCNc1cc(Nc2cccc(F)c2)ncc1C(=O)Nc1cccc(NC(=O)[C@H](C)N(C)C(=O)/C=C/CN(C)C)c1` [Compound 18-2, (S,E)-N-(3-(2-(4-(dimethylamino)-N-methyl-2-butenamido)propanamido)phenyl)-6-((3-fluorophenyl)amino)-4-(propylamino)nicotinamide]: the results for the IC50 in experiment [1] (setting [4]), in experiment [2] (setting [5]) and in experiment [3] (setting [6]) were less than 10 nM, less than 10 nM and 10 to 100 nM, respectively.
In the case of `CCCNc1nc(Nc2cccc(C#N)c2)ncc1C(=O)Nc1cccc(NC(=O)[C@H](C)N(C)C(=O)/C=C/CN(C)C)c1` [Compound 6-3, (S,E)-2-((3-cyanophenyl)amino)-N-(3-(2-(4-(dimethylamino)-N-methyl-2-butenamido)propanamido)phenyl)-4-(propylamino)pyrimidine-5-carboxamide], the IC50 is less than 10 nM in experiment [1] (setting [4]), 10 to 100 nM in experiment [2] (setting [5]) and 10 to 100 nM in experiment [3] (setting [6]).
`C[C@@H](C(=O)NCCCC#Cc1cnc(Nc2ccc(C#N)cc2)nc1NCCCF)N(C)C(=O)/C=C/CN(C)C` [Compound 10-29]: the IC50 in experiment [1] (setting [4]), in experiment [2] (setting [5]) and in experiment [3] (setting [6]) was less than 10 nM in each case.
Take `CCCNc1nc(Nc2ccc(C#N)cc2)ncc1C#CCCCNC(=O)[C@@H]1C[C@H](OC)CN1C(=O)/C=C/CN(C)C` [Compound 7-61]: the IC50 in experiment [1] (setting [4]), in experiment [2] (setting [5]) and in experiment [3] (setting [6]) was less than 10 nM each time.
Take `CCCNc1nc(NCCc2ccncc2)ncc1C(=O)Nc1cccc(NC(=O)CNC(=O)/C=C/CN(C)C)c1` [Compound 2-9]: the IC50 in experiment [1] (setting [4]), in experiment [2] (setting [5]) and in experiment [3] (setting [6]) was less than 10 nM each time.
Regarding `CCCNc1nc(Nc2ccc3sc(C)nc3c2)ncc1C#CCCCNC(=O)[C@H](C)N(C)C(=O)/C=C/CN(C)C` [Compound 22-7], the IC50 in experiment [1] (FLT3 (WT)) was less than 10 nM; in experiment [2] (MV4-11, MV4-11 cell), 10 to 100 nM; in experiment [3] (MOLM-13, MOLM13 cell), 10 to 100 nM.
As for `CCCNc1nc(NC)ncc1C#CCCCNC(=O)[C@H](C)N(C)C(=O)/C=C/CN(C)C` [Compound 11-1, (S,E)-4-(dimethylamino)-N-methyl-N-(1-((5-(2-(methylamino)-4-(propylamino)pyrimidin-5-yl)-4-pentyn-1-yl)amino)-1-oxopropan-2-yl)-2-butenamide], the IC50 in experiment [1] (setting [4]), in experiment [2] (setting [5]) and in experiment [3] (setting [6]) was 10 to 100 nM throughout.
In the case of `CCCNc1nc(Nc2ccc(F)cc2)ncc1C#CCCCNC(=O)CN(C)C(=O)/C=C/CN(C)C` [Compound 7-8, (E)-4-(Dimethylamino)-N-(2-((5-(2-((4-fluorophenyl)amino)-4-(propylamino)pyrimidin-5-yl)-4-pentyn-1-yl)amino)-2-oxoethyl)-N-methyl-2-butenamide], the IC50 in experiment [1] (setting [4]), in experiment [2] (setting [5]) and in experiment [3] (setting [6]) was less than 10 nM in each case.
`CC#CC(=O)N(C)[C@@H](C)C(=O)Nc1cccc(NC(=O)c2cnc(Nc3ccc(C(N)=O)cc3)nc2NCCC)c1` [Compound 3-11]: the values for the IC50 in experiment [1] (setting [4]), in experiment [2] (setting [5]) and in experiment [3] (setting [6]) were less than 10 nM, less than 10 nM and 10 to 100 nM, respectively.
For `CCCNc1nc(Nc2ccc(C#N)cc2)ncc1C#CCCCNC(=O)CN(Cc1ccccc1)C(=O)/C=C/CN(C)C` [Compound 7-43], the IC50 in experiment [1] (setting [4]), in experiment [2] (setting [5]) and in experiment [3] (setting [6]) was less than 10 nM each time.
As for `CCCNc1nc(Nc2ccc3[nH]ncc3c2)ncc1C#CCCCNC(=O)[C@H](C)N(C)C(=O)/C=C/CN(C)C` [Compound 21-55], the IC50 in experiment [1] (FLT3 (WT)) was less than 10 nM; in experiment [2] (MV4-11, MV4-11 cell) it was less than 10 nM; in experiment [3] (MOLM-13, MOLM13 cell) it was less than 10 nM.
Turning to `CNc1nc(Nc2ccc3c(cnn3C)c2)ncc1C#CCCCNC(=O)[C@H](C)N(C)C(=O)/C=C/CN(C)C` [Compound 10-52], the IC50 in experiment [1] (setting [4]), in experiment [2] (setting [5]) and in experiment [3] (setting [6]) was less than 10 nM throughout.
On to `CCCN(C)c1nc(Nc2ccnc(F)c2)ncc1C#CCCCNC(=O)[C@H](C)N(C)C(=O)/C=C/CN(C)C` [Compound 9-10], for which the IC50 in experiment [1] (setting [4]), in experiment [2] (setting [5]) and in experiment [3] (setting [6]) was less than 10 nM throughout.

The record behind these values is patent publication US9145415B2, “Nitrogen-containing heterocyclic compound or salt thereof” (FUJIFILM Corporation, priority 2012, dated 2015).
